Target: Induced myeloid leukemia cell differentiation protein Mcl-1 (Homo sapiens, UniProt Q07820)
Assay: regulators of Bim-Mcl-1 interaction, confirmation, biochemical, bead-based flow cytometry, multiplex, HTS hits (AID 2086)
[1] = inactive by the depositor's call

Chain of Induced myeloid leukemia cell differentiation protein Mcl-1 (Q07820 whole entry): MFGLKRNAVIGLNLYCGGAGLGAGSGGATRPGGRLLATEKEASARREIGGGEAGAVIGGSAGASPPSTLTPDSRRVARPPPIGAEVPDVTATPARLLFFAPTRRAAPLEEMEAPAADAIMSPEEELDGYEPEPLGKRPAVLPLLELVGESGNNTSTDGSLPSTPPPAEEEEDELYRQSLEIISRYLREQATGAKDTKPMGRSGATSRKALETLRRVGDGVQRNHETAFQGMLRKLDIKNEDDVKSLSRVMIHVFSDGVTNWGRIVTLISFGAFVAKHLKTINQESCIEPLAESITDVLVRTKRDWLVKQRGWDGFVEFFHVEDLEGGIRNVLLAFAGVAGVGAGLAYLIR

SMILES | EC50 [1] [µM] | EC50 [µM]
COc1ccc(N2C(=O)C(Cl)=C(Oc3cccc(OC)c3)C2=O)cc1 [3-chloro-4-(3-methoxyphenoxy)-1-(4-methoxyphenyl)-1H-pyrrole-2,5-dione] | 1.65 | 
COc1ccc(CCNC(=O)c2ccc3nc(-c4ccco4)c(-c4ccco4)nc3c2)cc1OC [N-[2-(3,4-dimethoxyphenyl)ethyl]-2,3-di-2-furylquinoxaline-6-carboxamide] | 14.8 | 
CNC1CCC(Br)CC(C(=O)C=Cc2cccc(OC)c2OC)C1=O (centres undefined) [4-bromo-2-[(E)-3-(2,3-dimethoxyphenyl)-1-oxoprop-2-enyl]-7-(methylamino)-1-cycloheptanone] | 37.4 | 
Cc1ccc(C=NNC(=O)CSc2nnc(-c3ccc(Cl)cc3)n2-c2ccccc2)o1 [SMR000218122] |  | 7.75
O=C(NCc1ccccc1)c1ccc2nc(-c3ccco3)c(-c3ccco3)nc2c1 [2,3-bis(furan-2-yl)-N-(phenylmethyl)quinoxaline-6-carboxamide] | 16 | 
O=C1NC(=O)C2(Cc3c(nc4ccccn4c3=O)N3CCCCCC32)C(=O)N1Cc1ccccc1 (centres undefined) [MLS000083668] | 3.18 | 
COc1cc(/N=C2\SSNC2Cl)c(OC)cc1Cl (centres undefined) [4-chloro-N-(4-chloro-2,5-dimethoxyphenyl)-5-dithiazolidinimine] | 21.5 | 
Cc1cc2nn(-c3cccc4ccccc34)nc2cc1N [SMR000076237] | 2.25 | 
Cc1ccc(-c2nc3c(c(=O)[nH]c(=O)n3Cc3ccccc3)n2C)o1 [7-methyl-8-(5-methyl-2-furanyl)-3-(phenylmethyl)purine-2,6-dione] | 34.2 | 

Source: BindingDB's records for doi:10.7270/Q24F1P57 (Nmmlsc, 2009)
